Earlier results in US20220142894A1, “A PROCESS OF COLORING KERATINOUS MATERIAL COMPRISING THE USE OF AN ORGANOSILICON COMPOUND, AN EFFECT PIGMENT, AND A SEALING REAGENT V” (Henkel AG & Co. KGaA, priority 2019, published 2022).

Conditions: 25° C.

Row | Structure (SMILES) | solubility in water | solubility in water (in words)
1 | CCN(Cc1cccc(S(=O)(=O)[O-])c1)c1ccc(C(=C2C=CC(=[N+](CC)Cc3cccc(S(=O)(=O)[O-])c3)C=C2)c2ccccc2S(=O)(=O)[O-])cc1.[Na+].[Na+] [Acid Blue 9] | more than 20 % by weight | 
2 | O=S(=O)([O-])c1ccc(N=Nc2c(O)ccc3ccccc23)cc1.[Na+] [Acid Orange 7, sodium salt of 4-[(2-hydroxy-1-naphthyl)azo]benzene sulphonate] | more than 7 g/L | 
3 | Nc1cc(S(=O)(=O)[O-])cc2cc(S(=O)(=O)[O-])c(N=Nc3ccccc3)c(O)c12.[Na+].[Na+] [Acid Red 33, disodium salt of 5-amino-4-hydroxy-3-(phenylazo)-naphthalene-2,7-disulphonate] | 2500 µg/mL | 
4 | O=C([O-])c1c(Cl)c(Cl)c(Cl)c(Cl)c1-c1c2c(Br)cc(=O)c(Br)c-2oc2c(Br)c(O)cc(Br)c12.O=C([O-])c1c(Cl)c(Cl)c(Cl)c(Cl)c1-c1c2c(Br)cc(=O)c(Br)c-2oc2c(Br)c(O)cc(Br)c12.[Na+].[Na+] [Acid Red 92, disodium salt of 3,4,5,6-tetrachloro-2-(1,4,5,8-tetrabromo-6-hydroxy-3-oxoxanthen-9-yl)benzoic acid] | greater than 10 g/L | 
5 | O=C([O-])C1=NN(c2ccc(S(=O)(=O)[O-])cc2)C(=O)C1N=Nc1ccc(S(=O)(=O)[O-])cc1.[Na+].[Na+].[Na+] (centres unmarked) [Acid Yellow 23, trisodium salt of 4,5-dihydro-5-oxo-1-(4-sulfophenyl)-4-((4-sulfophenyl)azo)-1H-pyrazole-3-carboxylic acid] |  | highly soluble
